Among the data in US20240182482A1, “FUSED CYCLIC COMPOUND AS WEE-1 INHIBITOR, PREPARATION METHOD THEREFOR AND USE THEREOF” (WIGEN BIOMEDICINE TECHNOLOGY (SHANGHAI) CO., LTD., priority 2021, published 2024) are IC50 values, retold here.

Broadly, the IC50 is the point on the concentration scale where inhibition reaches its midpoint.

For test [1], the system named is MIA PaCa-2 cells. The test is described as follows: In-vitro anti-proliferative activity in combination with gemcitabine (GMC) on MIA PaCa-2 cells. In kind it is cell-based. The method, then:
Example 73. In-Vitro Anti-Proliferative Activity of the Compounds of the Present Invention in Combination with Gemcitabine (GMC) on MIA PaCa-2 Cells
MIA PaCa-2 cells were seeded on a 384-well plate at 3000 cells/well, and 20 nM gemcitabine was added. After overnight adherence culture, DMSO or the compounds serially diluted 1:5 from 100 nM were added. The viability was assessed 72 h after dosing by measuring the intracellular ATP content. The inhibition percentage of viable cells by the compounds was calculated by comparing with the DMSO group, and the IC50 value was calculated.

Test [2] deals with MIA PaCa-2 cells. The test is described as follows: In-vitro anti-proliferative activity on MIA PaCa-2 cells (intracellular ATP content). It counts as cell-based. The settings on record: compound alone, 72 h after dosing, read-out: IC50 Without GMC, anti-proliferative activity on MIA PaCa-2 cells. The protocol: Example 72. In-Vitro Anti-Proliferative Activity of the Compounds of the Present Invention on MIA PaCa-2 Cells
MIA PaCa-2 cells were seeded on a 384-well plate at 3000 cells/well. After overnight adherence culture, DMSO or the compounds serially diluted 1:5 from 5 μM were added. The viability was assessed 72 h after dosing by measuring the intracellular ATP content. The inhibition percentage of viable cells by the compounds was calculated by comparing with the DMSO group, and the IC50 value was calculated.

A further test concerns the target Wee-1 kinase (Homo sapiens (Human), UniProt P30291). Briefly: Inhibitory activity against Wee-1 kinase (ADP-GLO chemiluminescence). The following applies: 60 min reaction at room temperature. In kind it is biochemical. The method, then:
Example 71. Assay of Inhibitory Activity of Compounds of the Present Invention Against Wee-1 Kinase
After the serially diluted compound and an enzyme were mixed, the mixture was incubated at room temperature (25° C.) for 15 min, and then centrifuged at 1000 rpm for 1 min for mixing. 5 μL of substrate was added to start the reaction. After the mixture was reacted at room temperature for 60 min, 5 μL of ADP-GLO reagent was added and the mixture was centrifuged at 1000 rpm for 1 min for mixing. The mixture was subsequently incubated at room temperature for 60 min, and then 10 μL of kinase detection reagent was added. The mixture was incubated for 60 min, and the chemiluminescence was determined. The inhibition percentage of the enzyme activity by the compounds was calculated compared with the DMSO group, and the IC50 values were also calculated.
In general terms: ADP-Glo first removes unused ATP, then detects ADP through luciferase.

The mark [3] stands for this setting: Homo sapiens, MIA PaCa-2, 72 h, read-out: IC50 GMC (20 nM), anti-proliferative activity on MIA PaCa-2 cells, in combination with 20 nM gemcitabine, 72 h after dosing, ATP content.
[4] abbreviates: read-out: IC50 GMC (20 nM), anti-proliferative activity on MIA PaCa-2 cells, in combination with 20 nM gemcitabine, 72 h after dosing, ATP content.

Sequence of Wee-1 kinase (P30291 whole entry): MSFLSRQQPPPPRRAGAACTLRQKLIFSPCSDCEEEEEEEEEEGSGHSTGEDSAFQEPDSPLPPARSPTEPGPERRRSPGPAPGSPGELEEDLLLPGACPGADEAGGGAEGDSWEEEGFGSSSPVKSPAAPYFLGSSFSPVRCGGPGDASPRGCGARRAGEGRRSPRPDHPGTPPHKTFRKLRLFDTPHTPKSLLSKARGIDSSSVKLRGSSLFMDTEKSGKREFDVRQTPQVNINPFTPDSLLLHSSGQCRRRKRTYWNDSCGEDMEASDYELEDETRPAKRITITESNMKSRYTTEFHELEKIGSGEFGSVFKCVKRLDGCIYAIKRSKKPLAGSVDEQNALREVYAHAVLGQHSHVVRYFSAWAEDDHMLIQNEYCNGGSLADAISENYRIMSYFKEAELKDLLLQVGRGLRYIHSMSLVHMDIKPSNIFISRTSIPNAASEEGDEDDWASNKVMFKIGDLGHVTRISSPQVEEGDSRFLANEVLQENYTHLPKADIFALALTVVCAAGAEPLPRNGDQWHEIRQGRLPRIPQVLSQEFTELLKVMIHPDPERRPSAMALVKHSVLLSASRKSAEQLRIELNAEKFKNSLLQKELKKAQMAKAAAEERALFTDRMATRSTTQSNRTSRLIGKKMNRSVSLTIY

For `[2H]C([2H])([2H])S(=O)(=Nc1nc(-n2cc(F)c3cnc(Nc4cc5c6c(c4)CN(C)C[C@H]6CCC5)nc32)ccc1F)C([2H])([2H])[2H]` [Compound 70], the IC50 was found to be 1.1 nM in the test on MIA PaCa-2 cells [1] (setting [3]); 89 nM in the test with MIA PaCa-2 cells [2] (Homo sapiens, MIA PaCa-2, 72 h); 1.84 nM against Wee-1 kinase.
For `CCS(=O)(CC)=Nc1cccc(-n2cc(F)c3cnc(Nc4cc5c6c(c4)CN(C)CC6CCC5)nc32)n1` (stereo not drawn) [Compound 2], the IC50 in the test with MIA PaCa-2 cells [1] (setting [3]) came out at 2.4 nM; with MIA PaCa-2 cells [2] (Homo sapiens, MIA PaCa-2, 72 h), 106 nM; on Wee-1 kinase it was 1.96 nM.
At Wee-1 kinase, `[2H]C([2H])([2H])S(=O)(=Nc1cccc(-n2cc(F)c3cnc(Nc4cc5c6c(c4)CN(C)C[C@H]6CCC5)nc32)n1)C([2H])([2H])[2H]` [Compound 69] returned an IC50 of 1.54 nM.
As for `CN1Cc2cc(Nc3ncc4c(F)cn(-c5cccc(N=S6(=O)CCC6)n5)c4n3)cc3c2C(CCC3)C1` (stereo not drawn) [Compound 3], the IC50 in the test on MIA PaCa-2 cells [1] (setting [3]) came out at 2.3 nM; in the test on MIA PaCa-2 cells [2] (Homo sapiens, MIA PaCa-2, 72 h), 128 nM; against Wee-1 kinase, 2.48 nM.
For `CN1Cc2cc(Nc3ncc4c(F)cn(-c5ccc(F)c(N=S(C)(C)=O)n5)c4n3)cc3c2[C@H](CCC3)C1` [Compound 65] the same measures were 1.4 nM, 78 nM and 1.56 nM.
With `CN1Cc2cc(Nc3ncc4c(F)cn(-c5cccc(N=S(C)(C)=O)n5)c4n3)cc3c2[C@H](CCC3)C1` [Compound 66], the IC50 in the test on MIA PaCa-2 cells [1] (setting [3]) was < 1 nM; in the test on MIA PaCa-2 cells [1] (setting [4]), 0.9 nM; with MIA PaCa-2 cells [2] (Homo sapiens, MIA PaCa-2, 72 h), 28 nM; against Wee-1 kinase, 1.19 nM.
With `CN1Cc2cc(Nc3ncc4c(F)cn(-c5cccc(N=S6(=O)CCCC6)n5)c4n3)cc3c2C(CCC3)C1` (stereo not drawn) [Compound 4], the IC50 in the test on MIA PaCa-2 cells [1] (setting [3]) worked out at 2.1 nM; in the test on MIA PaCa-2 cells [2] (Homo sapiens, MIA PaCa-2, 72 h), 115 nM; on Wee-1 kinase it was 2.47 nM.
For `CCN1Cc2cc(Nc3ncc4c(C)cn(-c5cccc(N=S(C)(C)=O)n5)c4n3)cc3c2C(CCC3)C1` (stereo not drawn) [Compound 28] the same measures were 1.3 nM, 172 nM and 2.33 nM.
Consider `[2H]C([2H])([2H])N1Cc2cc(Nc3ncc4c(F)cn(-c5ccc(F)c(N=S(C)(C)=O)n5)c4n3)cc3c2[C@H](CCC3)C1` [Compound 68], for which the IC50 with MIA PaCa-2 cells [1] (setting [3]) is < 1 nM; in the test with MIA PaCa-2 cells [1] (setting [4]) it was 0.9 nM; in the test on MIA PaCa-2 cells [2] (Homo sapiens, MIA PaCa-2, 72 h), 76 nM; at Wee-1 kinase, 1.97 nM.
On to `CN1Cc2cc(Nc3ncc4c(F)cn(-c5cccc(N=S(C)(C)=O)n5)c4n3)cc3c2C(CCC3)C1` (stereo not drawn) [Compound 63], for which the IC50 in the test with MIA PaCa-2 cells [1] (setting [3]) is 2.3 nM; in the test on MIA PaCa-2 cells [2], 173 nM; on Wee-1 kinase, 3.47 nM.
In the case of `[2H]C([2H])([2H])N1Cc2cc(Nc3ncc4c(F)cn(-c5cccc(N=S(C)(C)=O)n5)c4n3)cc3c2[C@H](CCC3)C1` [Compound 67], the IC50 is < 1 nM in the test on MIA PaCa-2 cells [1] (setting [3]); 0.8 nM with MIA PaCa-2 cells [1] (setting [4]); 49 nM with MIA PaCa-2 cells [2] (Homo sapiens, MIA PaCa-2, 72 h); 1.86 nM against Wee-1 kinase.
Consider `CN1Cc2cc(Nc3ncc4c(F)cn(-c5ccc(F)c(N=S(C)(C)=O)n5)c4n3)cc3c2C(CCC3)C1` (stereo not drawn) [Compound 64], for which the IC50 was 2.5 nM in the test with MIA PaCa-2 cells [1] (setting [4]), 179 nM with MIA PaCa-2 cells [2] and 3.36 nM on Wee-1 kinase.
In the case of `CN1Cc2cc(Nc3ncc4c(F)cn(-c5cccc(N=S(C)(C)=O)n5)c4n3)cc3c2C(CCC3)C1` (stereo not drawn) [Compound 1], the IC50 in the test on MIA PaCa-2 cells [1] (setting [4]) is 1.7 nM; with MIA PaCa-2 cells [2], 37 nM; against Wee-1 kinase, < 2 nM.
In the case of `CN1Cc2cc(Nc3ncc4c(F)cn(-c5ccc(F)c(N=S(C)(C)=O)n5)c4n3)cc3c2C(CCC3)C1` (stereo not drawn) [Compound 23], the IC50 worked out at 1.2 nM in the test with MIA PaCa-2 cells [1] (setting [4]); 155 nM in the test with MIA PaCa-2 cells [2] (Homo sapiens, MIA PaCa-2, 72 h); 2.05 nM against Wee-1 kinase.
As to `CN1Cc2cc(Nc3ncc4c(F)cn(-c5ccc(Cl)c(N=S(C)(C)=O)n5)c4n3)cc3c2C(CCC3)C1` (stereo not drawn) [Compound 24], the IC50 in the test with MIA PaCa-2 cells [1] (setting [3]) was determined as 1.6 nM; in the test with MIA PaCa-2 cells [2] (Homo sapiens, MIA PaCa-2, 72 h) it was 184 nM; against Wee-1 kinase, 2.49 nM.
With `CN1Cc2cc(Nc3ncc4c(F)cn(-c5cccc(N=S6(=O)CCOCC6)n5)c4n3)cc3c2C(CCC3)C1` (stereo not drawn) [Compound 5], the results for the IC50 in the test with MIA PaCa-2 cells [1] (setting [4]), with MIA PaCa-2 cells [2] and against Wee-1 kinase were 2.4 nM, 139 nM and 2.79 nM, respectively.
`CN1Cc2cc(Nc3ncc4c(F)cn(-c5cccc(P(C)(C)=O)n5)c4n3)cc3c2C(CCC3)C1` (stereo not drawn) [Compound 14]: the half-inhibitory concentration (IC50) amounted to 1.3 nM in the test on MIA PaCa-2 cells [1] (setting [3]); 331 nM in the test with MIA PaCa-2 cells [2] (Homo sapiens, MIA PaCa-2, 72 h); 2.71 nM at Wee-1 kinase.
`C=CCn1c(=O)c2cnc(Nc3ccc(N4CCN(C)CC4)cc3)nc2n1-c1cccc(C(C)(C)O)n1` [MK-1775, reference compound]: the IC50 worked out at 24.2 nM with MIA PaCa-2 cells [1] (setting [3]) and 904 nM with MIA PaCa-2 cells [2] (Homo sapiens, MIA PaCa-2, 72 h).
As for `[2H]C([2H])([2H])S(=O)(=Nc1cccc(-n2cc(F)c3cnc(Nc4cc5c6c(c4)CN(C)CC6CCC5)nc32)n1)C([2H])([2H])[2H]` (stereo not drawn) [Compound 21], the IC50 was 1.7 nM in the test on MIA PaCa-2 cells [1] (setting [3]); 85 nM in the test with MIA PaCa-2 cells [2] (Homo sapiens, MIA PaCa-2, 72 h); 1.67 nM on Wee-1 kinase.
